Here are results for 29 compounds from patent US9758538B2, “Pyrimidine derivatives” (PFIZER INC., priority 2015, dated 2017).

The structures appear in SMILES notation.

truncated PI3Kα (p110α/iSH2 p85α), PI3KA_Act, sequence (P42336 whole entry, the tested form may be a part): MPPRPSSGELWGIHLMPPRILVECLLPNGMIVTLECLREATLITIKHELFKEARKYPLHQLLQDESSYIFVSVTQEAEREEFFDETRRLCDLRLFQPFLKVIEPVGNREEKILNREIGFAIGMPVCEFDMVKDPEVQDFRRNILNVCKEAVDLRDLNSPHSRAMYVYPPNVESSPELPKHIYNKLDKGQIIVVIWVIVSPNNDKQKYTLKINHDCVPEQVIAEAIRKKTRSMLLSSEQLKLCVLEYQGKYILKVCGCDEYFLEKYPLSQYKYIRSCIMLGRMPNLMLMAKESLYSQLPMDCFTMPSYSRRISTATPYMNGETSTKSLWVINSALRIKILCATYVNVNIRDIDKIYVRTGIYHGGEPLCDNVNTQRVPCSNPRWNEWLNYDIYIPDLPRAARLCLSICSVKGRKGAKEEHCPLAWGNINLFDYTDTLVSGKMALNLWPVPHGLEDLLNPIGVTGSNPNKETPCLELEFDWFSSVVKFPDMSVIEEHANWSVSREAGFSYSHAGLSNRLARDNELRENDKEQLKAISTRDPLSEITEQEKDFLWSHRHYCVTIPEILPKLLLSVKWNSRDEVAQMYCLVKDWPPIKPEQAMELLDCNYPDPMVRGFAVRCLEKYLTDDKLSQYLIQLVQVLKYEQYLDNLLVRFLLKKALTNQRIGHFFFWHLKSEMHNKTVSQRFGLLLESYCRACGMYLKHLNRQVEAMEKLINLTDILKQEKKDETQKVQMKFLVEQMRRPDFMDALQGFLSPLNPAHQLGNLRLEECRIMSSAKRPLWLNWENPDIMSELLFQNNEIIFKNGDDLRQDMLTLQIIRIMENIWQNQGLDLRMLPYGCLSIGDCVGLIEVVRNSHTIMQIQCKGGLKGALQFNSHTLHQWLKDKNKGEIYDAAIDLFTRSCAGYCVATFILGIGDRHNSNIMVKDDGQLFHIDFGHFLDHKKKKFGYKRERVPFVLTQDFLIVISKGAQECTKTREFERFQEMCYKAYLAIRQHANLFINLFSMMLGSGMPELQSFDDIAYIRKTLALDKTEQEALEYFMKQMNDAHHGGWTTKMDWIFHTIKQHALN

This assay addresses truncated PI3Kα (p110α/iSH2 p85α), PI3KA_Act (Homo sapiens (Human), UniProt P42336). Put plainly: PI3Kα biochemical kinase assay, fluorescence polarization format (PI3KA_Act). Conditions: 0.5 nM p110α/iSH2 p85, 1 mM ATP, 30 μM PIP2, 15-min preincubation; Morrison equation fit; read-out: PI3KA_Act Ki. The method in brief: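 Enzyme: His-tagged p110α/p85α niSH2 complex from Sf21 baculovirus expression, IMAC-purified, tag cleaved, then SEC. Reactions ran 30 min at room temperature, stopped with 10 mM EDTA pH 8 (final), and were read by fluorescence polarization.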
Take `CC(C)(C)OC(=O)N1CCC(CF)(Nc2cc(-c3cnc(N)nc3)nc(N3CCOCC3)n2)C1` (centres unmarked) [Example 110, tert-butyl 3-{[2′-amino-2-(morpholin-4-yl)-4,5′-bipyrimidin-6-yl]amino}-3-(fluoromethyl)pyrrolidine-1-carboxylate]: the Ki came out at 0.072 nM. Consider `Nc1ncc(-c2nc(N3CCOCC3)nc(N[C@@]3(CO)CCN(C(=O)OC4CC4)C3)c2F)cn1` [Example 101, cyclopropyl (3S)-3-{[2′-amino-5-fluoro-2-(morpholin-4-yl)-4,5′-bipyrimidin-6-yl]amino}-3-(hydroxymethyl)pyrrolidine-1-carboxylate], for which the inhibition constant (Ki) was found to be 0.068 nM. In the case of `Nc1ncc(-c2cc(NC3(CO)CNC3)nc(N3CCOCC3)n2)cn1` [Example 43, (3-{[2′-amino-2-(morpholin-4-yl)-4,5′-bipyrimidin-6-yl]amino}azetidin-3-yl)methanol], the Ki came to 1.97 nM. For the compound `CCOC(=O)N1CC[C@](COC)(Nc2cc(-c3cnc(N)nc3)nc(N3CCOCC3)n2)C1` [Example 121, ethyl (3S)-3-{[2′-amino-2-(morpholin-4-yl)-4,5′-bipyrimidin-6-yl]amino}-3-(methoxymethyl)pyrrolidine-1-carboxylate], the Ki is 0.15 nM. Regarding `Cn1ccnc1C(=O)N1CC[C@](CO)(Nc2cc(-c3cnc(N)nc3)nc(N3CCOCC3)n2)C1` [Example 73, [(3S)-3-{[2′-amino-2-(morpholin-4-yl)-4,5′-bipyrimidin-6-yl]amino}-3-(hydroxymethyl)pyrrolidin-1-yl](1-methyl-1H-imidazol-2-yl)methanone], the Ki worked out at 0.746 nM. Consider `COC(=O)N1CC[C@](CO)(Nc2nc(N3CCOC[C@@H]3C)nc(-c3cnc(N)nc3)c2F)C1` [Example 114, methyl (3S)-3-({2′-amino-5-fluoro-2-[(3S)-3-methylmorpholin-4-yl]-4,5′-bipyrimidin-6-yl}amino)-3-(hydroxymethyl)pyrrolidine-1-carboxylate], for which the Ki was less than 0.018 nM. With `CC(=O)N1CCC[C@@](CO)(Nc2nc(N3CCOCC3)nc(-c3cnc(N)nc3)c2F)C1` [Example 152, 1-[(3R)-3-{[2′-amino-5-fluoro-2-(morpholin-4-yl)-4,5′-bipyrimidin-6-yl]amino}-3-(hydroxymethyl)piperidin-1-yl]ethanone] the figure was 1.65 nM; with `CN1CCCC(N2CC[C@](CO)(Nc3cc(-c4cnc(N)nc4)nc(N4CCOCC4)n3)C2)C1=O` (stereo partly drawn) [Example 84, 3-[(3S)-3-{[2′-amino-2-(morpholin-4-yl)-4,5′-bipyrimidin-6-yl]amino}-3-(hydroxymethyl)pyrrolidin-1-yl]-1-methylpiperidin-2-one], 0.445 nM; with `CCOC(=O)N1CC[C@](CO)(Nc2cc(-c3cnc(C)nc3)nc(N3CCOCC3)n2)C1` [Example 130, ethyl (3S)-3-(hydroxymethyl)-3-{[2′-methyl-2-(morpholin-4-yl)-4,5′-bipyrimidin-6-yl]amino}pyrrolidine-1-carboxylate], 0.83 nM.

In the case of `Cc1ncc(-c2cc(N[C@@]3(CO)CCN(C(=O)C4(F)CC4)C3)nc(N3CCOCC3)n2)cn1` [Example 136, (1-fluorocyclopropyl)[(3S)-3-(hydroxymethyl)-3-{[2′-methyl-2-(morpholin-4-yl)-4,5′-bipyrimidin-6-yl]amino}pyrrolidin-1-yl]methanone], the Ki was 0.739 nM. `C[C@H]1COCCN1c1nc(N[C@@]2(CF)CCN(C(=O)OC(C)(C)C)C2)cc(-c2cnc(N)nc2)n1` [Example 124, tert-butyl (3S)-3-({2′-amino-2-[(3S)-3-methylmorpholin-4-yl]-4,5′-bipyrimidin-6-yl}amino)-3-(fluoromethyl)pyrrolidine-1-carboxylate]: the Ki came to 0.046 nM. On to `CCOC(=O)N1CC[C@](CO)(Nc2nc(-c3cnc(N)nc3)nc(N3CCOC[C@@H]3C)n2)C1` [Example 118, ethyl (3S)-3-({4-(2-aminopyrimidin-5-yl)-6-[(3S)-3-methylmorpholin-4-yl]-1,3,5-triazin-2-yl}amino)-3-(hydroxymethyl)pyrrolidine-1-carboxylate], for which the Ki was less than 0.018 nM. With `Nc1ncc(-c2cc(N[C@@]3(CO)CCN(C4CCNC4=O)C3)nc(N3CCOCC3)n2)cn1` (stereo partly drawn) [Example 80, (3S)-3-{[2′-amino-2-(morpholin-4-yl)-4,5′-bipyrimidin-6-yl]amino}-3-(hydroxymethyl)-1,3′-bipyrrolidin-2′-one] the figure was 1.94 nM; with `Nc1ncc(-c2cc(N[C@@]3(CO)CCN(c4ccccn4)C3)nc(N3CCOCC3)n2)cn1` [Example 85, [(3S)-3-{[2′-amino-2-(morpholin-4-yl)-4,5′-bipyrimidin-6-yl]amino}-1-(pyridin-2-yl)pyrrolidin-3-yl]methanol], 0.067 nM; with `CCOC(=O)N1CC[C@](CO)(Nc2nc(N3CCOCC3)nc(-c3cnc(N)nc3)c2F)C1` [Example 69, ethyl (3S)-3-{[2′-amino-5-fluoro-2-(morpholin-4-yl)-4,5′-bipyrimidin-6-yl]amino}-3-(hydroxymethyl)pyrrolidine-1-carboxylate], 0.15 nM.

On to `CC(=O)N1CC[C@](CO)(Nc2cc(-c3cnc(N)nc3)nc(N3CCOCC3)n2)C1` [Example 32, 1-[(3S)-3-{[2′-amino-2-(morpholin-4-yl)-4,5′-bipyrimidin-6-yl]amino}-3-(hydroxymethyl)pyrrolidin-1-yl]ethanone], for which the Ki is 0.771 nM. With `Nc1ncc(-c2cc(N[C@@]3(CO)CCN(C(=O)[C@H](O)c4ccccc4)C3)nc(N3CCOCC3)n2)cn1` [Example 55, (2R)-1-[(3S)-3-{[2′-amino-2-(morpholin-4-yl)-4,5′-bipyrimidin-6-yl]amino}-3-(hydroxymethyl)pyrrolidin-1-yl]-2-hydroxy-2-phenylethanone], the Ki turned out to be 0.371 nM. The result for `COC(=O)N1CC[C@](CO)(Nc2cc(-c3cnc(N)nc3C(F)(F)F)nc(N3CCOCC3)n2)C1` [Example 58, methyl (3S)-3-{[2′-amino-2-(morpholin-4-yl)-4′-(trifluoromethyl)-4,5′-bipyrimidin-6-yl]amino}-3-(hydroxymethyl)pyrrolidine-1-carboxylate] reads 0.2 nM.

Consider `C[C@@]1(Nc2cc(-c3cnc(N)nc3)nc(N3CCOCC3)n2)CCN(S(C)(=O)=O)C1` [Example 12, N˜6˜-[(3R)-3-methyl-1-(methylsulfonyl)pyrrolidin-3-yl]-2-(morpholin-4-yl)-4,5′-bipyrimidine-2′,6-diamine], for which the inhibitory constant (Ki) was 1.29 nM. In the case of `Cc1ncc(-c2cc(N[C@@]3(CO)CCN(C(=O)OCC(F)F)C3)nc(N3CCOCC3)n2)cn1` [Example 138, 2,2-difluoroethyl (3S)-3-(hydroxymethyl)-3-{[2′-methyl-2-(morpholin-4-yl)-4,5′-bipyrimidin-6-yl]amino}pyrrolidine-1-carboxylate], the inhibition constant Ki amounted to 0.557 nM. On to `Nc1ncc(-c2cc(N[C@@]3(CO)CCN(C(=O)OCC(F)F)C3)nc(N3CCOCC3)n2)cn1` [Example 79, 2,2-difluoroethyl (3S)-3-{[2′-amino-2-(morpholin-4-yl)-4,5′-bipyrimidin-6-yl]amino}-3-(hydroxymethyl)pyrrolidine-1-carboxylate], for which the Ki was found to be 0.021 nM. In the case of `Cc1ncc(-c2cc(N[C@@]3(CO)CCN(C(=O)OC(C)(C)C)C3)nc(N3CCOCC3)n2)cn1` [Example 126, tert-butyl (3S)-3-(hydroxymethyl)-3-{[2′-methyl-2-(morpholin-4-yl)-4,5′-bipyrimidin-6-yl]amino}pyrrolidine-1-carboxylate], the Ki amounted to 1.92 nM. As to `CC(C)(C)OC(=O)N1CCCC(CO)(Nc2cc(-c3cnc(N)nc3)nc(N3CCOCC3)n2)C1` (centres unmarked) [Example 123, tert-butyl 3-{[2′-amino-2-(morpholin-4-yl)-4,5′-bipyrimidin-6-yl]amino}-3-(hydroxymethyl)piperidine-1-carboxylate], the Ki was determined as 1.7 nM. With `Nc1ncc(-c2nc(N3CCOCC3)nc(N[C@]3(CO)CCCN(C(=O)C4CC4)C3)c2F)cn1` [Example 157, [(3R)-3-{[2′-amino-5-fluoro-2-(morpholin-4-yl)-4,5′-bipyrimidin-6-yl]amino}-3-(hydroxymethyl)piperidin-1-yl](cyclopropyl)methanone] the figure was 1.87 nM; with `CN(C)C(=O)CN1CC[C@](CO)(Nc2cc(-c3cnc(N)nc3)nc(N3CCOCC3)n2)C1` [Example 100, 2-[(3S)-3-{[2′-amino-2-(morpholin-4-yl)-4,5′-bipyrimidin-6-yl]amino}-3-(hydroxymethyl)pyrrolidin-1-yl]-N,N-dimethylacetamide], 1.48 nM; with `CC(C)OC(=O)N1CC[C@](CO)(Nc2cc(-c3cnc(N)nc3)nc(N3CCOCC3)n2)C1` [Example 44, propan-2-yl (3S)-3-{[2′-amino-2-(morpholin-4-yl)-4,5′-bipyrimidin-6-yl]amino}-3-(hydroxymethyl)pyrrolidine-1-carboxylate], 0.032 nM. With `COCC(=O)N1CCC[C@](CO)(Nc2nc(N3CCOCC3)nc(-c3cnc(N)nc3)c2F)C1` [Example 150, 1-[(3S)-3-{[2′-amino-5-fluoro-2-(morpholin-4-yl)-4,5′-bipyrimidin-6-yl]amino}-3-(hydroxymethyl)piperidin-1-yl]-2-methoxyethanone], the Ki was determined as 0.8 nM.

On to `CCC1(Nc2cc(-c3cnc(N)nc3)nc(N3CCOCC3)n2)CCN(C(=O)OC(C)(C)C)C1` (centres unmarked) [Example 28, tert-butyl 3-{[2′-amino-2-(morpholin-4-yl)-4,5′-bipyrimidin-6-yl]amino}-3-ethylpyrrolidine-1-carboxylate], for which the Ki came out at 0.201 nM. With `Nc1ncc(-c2cc(N[C@@]3(CO)CCN(C(=O)C4(F)CNC4)C3)nc(N3CCOCC3)n2)cn1` [Example 97, [(3S)-3-{[2′-amino-2-(morpholin-4-yl)-4,5′-bipyrimidin-6-yl]amino}-3-(hydroxymethyl)pyrrolidin-1-yl](3-fluoroazetidin-3-yl)methanone], the Ki is less than 0.018 nM.
